Consider two compounds from patent EP2874610B1, “MULTILAYERED PHARMACEUTICAL FORMULATION” (Recordati Industria Chimica E Farmaceutica SPA, priority 2012, dated 2014).

Series [1] in a line: Dissolution test by immersion into simulated gastric fluid (USP apparatus II), then pH raised to 7.2. Type of series: physicochemical. Here is the method:
The dissolution profile of the trilayered tablets prepared as described in examples 1, 2 and 3 was determined by immersion into simulated gastric fluid (USP apparatus II for dissolution test).
After immersion, the tablets (n = 6) placed themselves on the bottom of the vessel and the development of CO2 bubbles which remained entrapped into the hydroxypropylmethylcellulose gel formed in contact with the aqueous medium was observed from layer A. At the same time, layer B rapidly disintegrated in correspondence with the side surface of the layer exposed to the simulated gastric fluid.
The dissolution profile of the trilayered tablets prepared as described in examples 6, and 7 was determined by immersion into simulated gastric fluid (USP apparatus II for dissolution test).

The next series can be described thus: clinical. The note with it: for AUC(0-inf): AUCinf; for time plasma levels were maintained at plateau: three layer tablet of example 4, Figure 6. Here is the method: A three layer tablet of gabapentin 375 mg and flurbiprofen 37.5 mg, prepared as described in example 4, was administered to 24 healthy male and female subjects, 18-55 years old, in fasting conditions and after a high fat meal in single dose according to a randomized cross-over design. The treatment periods were separated by a wash out interval of at least 5 days.
Each dose was taken with 240 mL of water in fasting conditions from at least 10 hours or 30 minutes after a standardized meal, which was high-caloric (approximately 1000 Kcal) and high-fat (approximately 50 percent of total caloric content of the meal).
Gabapentin and flurbiprofen plasma levels were determined by a validated HPLC/MS/MS analytical method at the following times: pre-dose, 0.5, 1, 1.5, 2, 3, 4, 5, 6, 7, 8, 10, 12, 16, 24 and 32 h post-dose.

Series [2] in a line: Dissolution rate under simulated fasting and fed conditions (SGF pH 1.2, FaSSGF pH 1.6, FeSSGFm pH 5.0). The format is physicochemical. The conditions noted are these: tablets of example 2. How it is done:
The dissolution rate of trilayered tablets prepared as described in example 2, was evaluated also under simulated fasting and fed conditions. The evaluation was carried out under the following conditions: simulated gastric fluid at pH1.2 (SGF), simulated gastric fluid at pH 1.6 (FaSSGF) for fasting conditions and simulated gastric fluid at pH 5.0 (FeSSGFm) for fed conditions.

Setting [3] is: both, human, in vivo, Fed conditions (high fat meal), three layer tablet of example 4, single dose, arithmetic mean ± s.d., n=24.
The mark [4] stands for this setting: three layer tablet of example 4, single dose.

For the compound `CC(C(=O)O)c1ccc(-c2ccccc2)c(F)c1` (stereo not shown) [flurbiprofen], the “release of flurbiprofen contained in layer C in simulated gastric fluid” value is listed as “not released in the first hour” in series [1] (tablets of example 1, before raising the pH); “not released at pH 1.2” in series [1] (tablets of example 2, pH 1.2); “not released at pH 1.2” in series [1] (tablets of example 3, pH 1.2); “not released in the first hour” in series [1] (tablets of example 6, before raising the pH); “not released at pH 1.2” in series [1] (tablets of example 7, pH 1.2). Further, the “release of flurbiprofen contained in layer C after having raised the pH to 7.2” value in series [1] (tablets of example 1, in 5 hours, linear release) is 100%; in series [1] (tablets of example 2, in 6 hours, linear release), 90%; in series [1] (tablets of example 3, in 6 hours, linear release), 90%; in series [1] (tablets of example 6, in 5 hours) it was 100%; in series [1] (tablets of example 7, in 7 hours, linear release), 90%. Besides, in “clinical” (both, human, in vivo), the “Ratio of geometric means, AUCinf, Test / Reference (Fed / fasting)” value came to 98%. Also, the “Ratio of geometric means, Cmax, Test / Reference (Fed / fasting)” value in the series “clinical” (both, human, in vivo) is 157%. Also, the “time after intake up to which release was very low” value in the series “clinical” (both, human, in vivo) is reported as “up to 2 hours”. The “time post dose at which plasma levels reached a plateau” value in the series “clinical” (both, human, in vivo) is reported as “around 4 hour”. In the series “clinical” (both, human, in vivo), this compound gave a total exposure AUC(0-inf) of 35700 ± 13200 ng·h/mL. Also, in “clinical” (both, human, in vivo), the Tmax is 12 h.

Turning to `NCC1(CC(=O)O)CCCCC1` [gabapentin], the “release time of gabapentin contained in layer B” value in series [1] (tablets of example 1) is no more than 5 min; in series [1] (tablets of example 2), no more than 15 min; in series [1] (tablets of example 3) it was no more than 15 min; in series [1] (tablets of example 6) it was no more than 15 min; in series [1] (tablets of example 7), no more than 15 min. The “release time of remaining dose of gabapentin contained in layer A” value in series [1] (tablets of example 1, slow prolonged release) is reported as “about 8 hours”; in series [1] (tablets of example 2, slow prolonged release), “about 9 hours”; in series [1] (tablets of example 3, slow prolonged release) it was “about 9 hours”; in series [1] (tablets of example 7, slow prolonged release), “about 9 hours”. Also, the “release of remaining dose of gabapentin contained in layer A” value in series [1] (tablets of example 6, in about 9 hours, slow prolonged release) is listed as 90%. Further, the “f2 factor, similarity index between SGF and FaSSGF release profiles” value in series [2] (pH 1.2 vs pH 1.6) is reported as 83. In series [2] (pH 1.2 vs pH 5.0), the “f2 factor, similarity index between SGF and FeSSGFm release profiles” value is 65.8. Also, the “f2 factor, similarity index between FaSSFG and FeSSGFm release profiles” value in series [2] (pH 1.6 vs pH 5.0) is 55.7. Moreover, the “comparison of dissolution profiles in SGF, FaSSGF and FeSSGFm” value in series [2] (result in words) was “did not show significant differences”. Further, the AUC(0-inf) in “clinical” (both, human, in vivo, Fasting conditions, three layer tablet of example 4, single dose, arithmetic mean ± s.d., n=24) was found to be 24100 ± 8150 ng·h/mL; in the series “clinical” (setting [3]), 39200 ± 9070 ng·h/mL. The Cmax in “clinical” (both, human, in vivo, Fasting conditions, three layer tablet of example 4 (gabapentin 375 mg, flurbiprofen 37.5 mg), single dose, arithmetic mean ± s.d., n=24) was 2340 ± 748 ng/mL; in “clinical” (setting [3]) it was 3080 ± 727 ng/mL. For the same compound, the Tmax is 4 h in “clinical” (both, human, in vivo, Fasting conditions, three layer tablet of example 4, single dose, median (min - max), n=24) and 5 h in the series “clinical” (both, human, in vivo, Fed conditions (high fat meal), three layer tablet of example 4, single dose, median (min - max), n=24). In addition, the “time plasma levels were maintained at plateau” value was “about 4 hours” in “clinical” (fasting conditions) and 8 h in “clinical” (fed conditions). In addition, the “Ratio of geometric means, AUCinf, Test / Reference (Fed / fasting)” value in “clinical” (setting [4]) was 167%. In addition, the “Ratio of geometric means, Cmax, Test / Reference (Fed / fasting)” value in “clinical” (setting [4]) was 136%.

What is called AUC(0-inf) is total exposure, with the tail of the curve extrapolated. Higher therefore signals more exposure. In general, Tmax refers to the time from dosing to the highest level. Broadly, the Cmax is the peak of the concentration-time curve.
